Source: ChEMBL document CHEMBL1129829, “Synthesis and biological activity of P2P4 azapeptidomimetic P1-argininal and P1-ketoargininamide derivatives: a novel class of serine protease inhibitors” (Bioorg Med Chem Lett, 1997)

Columns and labels:
Serine protease 1 [1] = target: T1, Serine protease 1 (Bos taurus, UniProt P00760); assay: Compound was evaluated for its 50% inhibitory concentration against cow protease enzyme trypsin
T1 sequence (P00760 whole entry): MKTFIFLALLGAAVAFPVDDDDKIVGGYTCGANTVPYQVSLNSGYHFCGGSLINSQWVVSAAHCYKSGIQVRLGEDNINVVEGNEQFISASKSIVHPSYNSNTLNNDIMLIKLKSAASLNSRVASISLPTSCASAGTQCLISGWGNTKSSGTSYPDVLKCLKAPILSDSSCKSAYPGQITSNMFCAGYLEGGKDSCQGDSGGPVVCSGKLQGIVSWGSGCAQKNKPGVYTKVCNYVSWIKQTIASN

Coagulation factor X [2] = target: T2, Coagulation factor X (Homo sapiens, UniProt P00742); assay: Compound was evaluated for its 50% inhibitory concentration against Coagulation factor X
Prothrombin [3] = target: T3, Prothrombin (Homo sapiens, UniProt P00734); assay: Compound was evaluated for its 50 percent inhibitory concentration against human thrombin factor (FIIa)
Plasminogen [4] = target: T4, Plasminogen (Homo sapiens, UniProt P00747); assay: Compound was evaluated for its 50% inhibitory concentration against human protease enzyme plasmin
Coagulation factor VII [5] = target: T5, Coagulation factor VII (Homo sapiens, UniProt P08709); assay: Compound was evaluated for its 50 percent inhibitory concentration against human Coagulation factor VII
T5 sequence (P08709 whole entry): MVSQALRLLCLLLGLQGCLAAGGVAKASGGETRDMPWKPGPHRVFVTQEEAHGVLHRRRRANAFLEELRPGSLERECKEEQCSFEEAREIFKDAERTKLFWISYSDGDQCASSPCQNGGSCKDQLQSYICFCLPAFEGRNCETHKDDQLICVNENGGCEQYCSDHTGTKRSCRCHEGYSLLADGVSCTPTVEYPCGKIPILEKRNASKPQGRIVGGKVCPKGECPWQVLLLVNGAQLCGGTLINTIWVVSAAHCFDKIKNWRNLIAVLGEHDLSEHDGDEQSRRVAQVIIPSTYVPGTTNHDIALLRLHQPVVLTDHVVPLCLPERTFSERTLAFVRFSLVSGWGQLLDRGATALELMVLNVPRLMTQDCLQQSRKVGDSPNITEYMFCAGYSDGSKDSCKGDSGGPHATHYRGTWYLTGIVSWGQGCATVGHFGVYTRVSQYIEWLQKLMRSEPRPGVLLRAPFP

Plasminogen [6] = target: T4, Plasminogen
Coagulation factor X [7] = target: T2, Coagulation factor X
Serine protease 1 [8] = target: Serine protease 1 (Homo sapiens, UniProt P07477); assay: Compound was evaluated for its 50% inhibitory concentration against human protease enzyme trypsin
Plasminogen [9] = target: T4, Plasminogen; assay: Compound was evaluated for its 50% inhibitory concentration against human protease enzyme plasmin; Inactive
Coagulation factor VII [10] = target: T5, Coagulation factor VII; assay: Compound was evaluated for its 50 percent inhibitory concentration against human Coagulation factor VII; inactive
Prothrombin [11] = target: T3, Prothrombin
Coagulation factor VII [12] = target: T5, Coagulation factor VII; assay: Compound was evaluated for its 50 percent inhibitory concentration against human Coagulation factor VII: Inactive

Chain of Serine protease 1 (Homo sapiens, UniProt P07477) (P07477 whole entry): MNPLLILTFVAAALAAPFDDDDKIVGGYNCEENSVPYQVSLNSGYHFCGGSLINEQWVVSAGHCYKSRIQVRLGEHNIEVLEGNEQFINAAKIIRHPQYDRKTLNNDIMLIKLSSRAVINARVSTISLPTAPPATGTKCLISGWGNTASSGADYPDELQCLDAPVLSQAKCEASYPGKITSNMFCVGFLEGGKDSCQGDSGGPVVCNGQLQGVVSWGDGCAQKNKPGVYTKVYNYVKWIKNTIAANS
T4 sequence (P00747 97-580 limits assumed): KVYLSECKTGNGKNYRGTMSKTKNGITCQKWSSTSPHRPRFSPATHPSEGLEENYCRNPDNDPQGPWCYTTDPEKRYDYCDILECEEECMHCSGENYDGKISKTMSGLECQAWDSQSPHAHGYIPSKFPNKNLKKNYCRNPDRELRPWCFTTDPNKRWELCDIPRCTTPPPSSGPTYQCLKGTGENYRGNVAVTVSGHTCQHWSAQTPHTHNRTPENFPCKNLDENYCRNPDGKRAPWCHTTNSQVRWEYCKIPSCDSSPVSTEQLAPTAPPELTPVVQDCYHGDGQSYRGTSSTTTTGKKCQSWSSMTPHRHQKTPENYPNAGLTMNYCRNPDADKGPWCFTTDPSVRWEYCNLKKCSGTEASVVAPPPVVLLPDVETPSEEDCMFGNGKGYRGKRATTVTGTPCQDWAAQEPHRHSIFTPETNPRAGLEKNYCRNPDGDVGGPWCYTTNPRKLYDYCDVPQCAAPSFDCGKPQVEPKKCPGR
T4 sequence (P00747 581-810 limits assumed): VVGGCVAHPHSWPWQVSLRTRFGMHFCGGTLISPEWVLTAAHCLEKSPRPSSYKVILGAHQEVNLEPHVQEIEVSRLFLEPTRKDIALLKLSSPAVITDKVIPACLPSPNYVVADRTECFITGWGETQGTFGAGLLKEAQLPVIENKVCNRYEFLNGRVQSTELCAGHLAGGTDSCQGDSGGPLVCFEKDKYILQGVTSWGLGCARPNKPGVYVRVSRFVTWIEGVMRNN
T2 sequence (P00742 41-179 limits assumed): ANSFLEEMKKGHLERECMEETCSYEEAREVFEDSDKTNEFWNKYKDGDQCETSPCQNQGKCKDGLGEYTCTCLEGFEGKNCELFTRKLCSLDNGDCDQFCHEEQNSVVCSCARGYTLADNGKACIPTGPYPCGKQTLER
T2 sequence (P00742 235-488 limits assumed): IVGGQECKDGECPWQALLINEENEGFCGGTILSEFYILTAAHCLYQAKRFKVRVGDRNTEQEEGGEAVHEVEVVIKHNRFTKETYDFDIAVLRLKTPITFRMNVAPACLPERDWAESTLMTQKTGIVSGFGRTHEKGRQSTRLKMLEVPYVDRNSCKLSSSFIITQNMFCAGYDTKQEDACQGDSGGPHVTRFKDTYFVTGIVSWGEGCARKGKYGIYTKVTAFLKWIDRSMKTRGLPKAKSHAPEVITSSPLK

SMILES | IC50 (Serine protease 1 [1]) [µM] | IC50 (Coagulation factor X [2]) [µM] | IC50 (Prothrombin [3]) [µM] | IC50 (Plasminogen [4]) [µM] | IC50 (Coagulation factor VII [5]) [µM] | IC50 (Plasminogen [6]) | IC50 (Coagulation factor X [7]) | IC50 (Serine protease 1 [8]) [µM] | IC50 (Plasminogen [9]) | IC50 (Coagulation factor VII [10]) | IC50 (Prothrombin [11]) | IC50 (Coagulation factor VII [12])
CC(C)(C)OC(=O)N[C@@H](CC(=O)O)C(=O)N1CCCC1C(=O)N[C@@H](CCCN=C(N)N)C(=O)C(=O)NCCc1ccccc1 (some centres undefined) | 0.00076 | 0.698 | 0.0023 | 2.71 | 0.706 | – | – | – | – | – | – | –
CCOC(=O)CN(NC(C)=O)C(=O)[C@@H]1CCCC[C@H]1C(=O)N[C@H](C=O)CCCN=C(N)N | 0.59 | – | 22.1 | – | > 25 | Not Active | Not Active | – | – | – | – | –
CCCC(CCC)C(=O)NN(CC(=O)OCC)C(=O)[C@@H]1CCCC[C@H]1C(=O)N[C@@H](CCCN=C(N)N)C(=O)C(=O)NCCc1ccccc1 | – | – | 13.2 | – | – | – | Not Active | 22.2 | Not Active | Not Active | – | –
CCOC(=O)CN(NC(=O)OC(C)(C)C)C(=O)[C@@H]1CCCC[C@H]1C(=O)N[C@H](C=O)CCCN=C(N)N | 0.25 | – | > 2.5 | – | 22 | Not Active | Not Active | – | – | – | – | –
CC(=O)NN(CCCc1ccccc1)C(=O)[C@@H]1CCCC[C@H]1C(=O)N[C@H](C=O)CCCN=C(N)N | – | – | 12.8 | – | > 25 | Not Active | Not Active | 5.7 | – | – | – | –
CC(=O)NN(Cc1ccccc1)C(=O)[C@@H]1CCCC[C@H]1C(=O)N[C@@H](CCCN=C(N)N)C(=O)C(=O)NCCc1ccccc1 | 0.108 | – | 3.2 | > 2.5 | 8.5 | – | Not Active | – | – | – | – | –
CC(=O)NN(Cc1ccccc1)C(=O)[C@@H]1CCCC[C@H]1C(=O)N[C@H](C=O)CCCN=C(N)N | > 2.5 | – | – | – | > 25 | Not Active | Not Active | – | – | – | Not Active | –
CC(C)(C)OC(=O)NN(Cc1ccccc1)C(=O)[C@@H]1CCCC[C@H]1C(=O)N[C@H](C=O)CCCN=C(N)N | > 2.5 | – | > 2.5 | – | > 25 | Not Active | Not Active | – | – | – | – | –
CCOC(=O)CN(NC(=O)OC(C)(C)C)C(=O)[C@@H]1CCCC[C@H]1C(=O)N[C@@H](CCCN=C(N)N)C(=O)C(=O)NCCc1ccccc1 | 0.25 | – | > 2.5 | – | 25 | Not Active | Not Active | – | – | – | – | –
COC(=O)CN(NC(=O)OC(C)(C)C)C(=O)[C@@H]1CCCC[C@H]1C(=O)N[C@@H](CCCN=C(N)N)C(=O)C(=O)NCCc1ccccc1 | 1.31 | – | – | – | 18 | Not Active | Not Active | – | – | – | Not Active | –
CC(C)(C)OC(=O)NN(Cc1ccccc1)C(=O)[C@@H]1CCCC[C@H]1C(=O)N[C@@H](CCCN=C(N)N)C(=O)C(=O)NCCc1ccccc1 | – | – | 0.88 | – | – | Not Active | Not Active | 0.25 | – | – | – | Not Active
CC(=O)N[C@H](Cc1ccccc1)C(=O)N1CCC[C@H]1C(=O)N[C@H]1CCCN(C(=N)N)C1O (some centres undefined) | 0.156 | > 2.5 | – | > 2.5 | 4.3 | – | – | – | – | – | – | –
